Results as given in ChEMBL document CHEMBL1201862, “PubChem BioAssay data set” (2004).
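Cultured in 96-well plates, cells were exposed to test compound for 48 hours across five concentrations. Here, GI50 denotes the concentration required for 50% inhibition of growth.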 Active and inactive are the calls of the source. Rule as the data show it: active = GI50 up to about 1.1 µM and inactive = higher.

Legend:
Assay in all cases: inhibition of tumour cell growth, NCI panel, 48 h
[1] = test system: NCI/ADR-RES
[2] = test system: HT-29
[3] = test system: MOLT-4
[4] = test system: SF-295
[5] = test system: CAKI-1
[6] = test system: K562
[7] = test system: EKVX
[8] = test system: UACC-257
[9] = test system: MDA-N
[10] = test system: DU-145
[11] = test system: MCF7
[12] = test system: LOX IMVI
[13] = test system: NCI-H23
[14] = test system: OVCAR-3
[15] = test system: SF-539
[16] = test system: TK-10
[17] = test system: SK-MEL-5
[18] = test system: SK-MEL-2
[19] = test system: RPMI-8226
[20] = test system: UO-31

SMILES | GI50 [1] | GI50 [2] | GI50 [3] | GI50 [4] | GI50 [5] | GI50 [6] | GI50 [7] | GI50 [8] | GI50 [9] | GI50 [10] | GI50 [11] | GI50 [12] | GI50 [13] | GI50 [14] | GI50 [15] | GI50 [16] | GI50 [17] | GI50 [18] | GI50 [19] | GI50 [20]
CCOC(=O)c1c(SC(=O)c2ccc(C(C)(C)C)cc2)n(-c2ccccc2)c(=S)n(-c2ccccc2)c1=O | > 100 µM (inactive) | > 100 µM (inactive) | 59.4 µM (inactive) | > 100 µM (inactive) | > 100 µM (inactive) | > 100 µM (inactive) | > 100 µM (inactive) | > 100 µM (inactive) | > 100 µM (inactive) | > 100 µM (inactive) | > 100 µM (inactive) | > 100 µM (inactive) | > 100 µM (inactive) | > 100 µM (inactive) | > 100 µM (inactive) | > 100 µM (inactive) | – | – | – | –
COC(NC(N)=O)C(=O)O (centres undefined) | > 100 µM (inactive) | > 100 µM (inactive) | > 100 µM (inactive) | > 100 µM (inactive) | > 100 µM (inactive) | > 100 µM (inactive) | > 100 µM (inactive) | > 100 µM (inactive) | > 100 µM (inactive) | > 100 µM (inactive) | > 100 µM (inactive) | – | > 100 µM (inactive) | > 100 µM (inactive) | > 100 µM (inactive) | > 100 µM (inactive) | > 100 µM (inactive) | > 100 µM (inactive) | > 100 µM (inactive) | > 100 µM (inactive)
Clc1cc2nnn(C3CCCO3)c2cc1Cl (centres undefined) | > 100 µM (inactive) | > 100 µM (inactive) | 83.6 µM (inactive) | > 100 µM (inactive) | > 100 µM (inactive) | > 100 µM (inactive) | 66.1 µM (inactive) | > 100 µM (inactive) | > 100 µM (inactive) | > 100 µM (inactive) | > 100 µM (inactive) | – | 60.1 µM (inactive) | > 100 µM (inactive) | > 100 µM (inactive) | > 100 µM (inactive) | 75.3 µM (inactive) | > 100 µM (inactive) | – | –
CC1(CCCO)CCCCCCCCCC(C)(CCCO)C1=O (centres undefined) | > 100 µM (inactive) | > 100 µM (inactive) | > 100 µM (inactive) | > 100 µM (inactive) | > 100 µM (inactive) | > 100 µM (inactive) | > 100 µM (inactive) | > 100 µM (inactive) | > 100 µM (inactive) | > 100 µM (inactive) | > 100 µM (inactive) | > 100 µM (inactive) | > 100 µM (inactive) | > 100 µM (inactive) | – | – | > 100 µM (inactive) | 97.5 µM (inactive) | > 100 µM (inactive) | > 100 µM (inactive)
CC(O)(Cc1ccccc1C#N)Cc1ccccc1C#N | 27.9 µM (inactive) | > 100 µM (inactive) | 28.6 µM (inactive) | 74 µM (inactive) | > 100 µM (inactive) | 50 µM (inactive) | > 100 µM (inactive) | 89.7 µM (inactive) | > 100 µM (inactive) | > 100 µM (inactive) | > 100 µM (inactive) | > 100 µM (inactive) | – | 65.6 µM (inactive) | > 100 µM (inactive) | > 100 µM (inactive) | 57.3 µM (inactive) | > 100 µM (inactive) | – | –
CN/C(=N\CCSCc1nc[nH]c1C)NC#N [CIMETIDINE] | > 100 µM (inactive) | > 100 µM (inactive) | > 100 µM (inactive) | > 100 µM (inactive) | > 100 µM (inactive) | > 100 µM (inactive) | > 10 µM (inactive) | > 100 µM (inactive) | > 100 µM (inactive) | > 100 µM (inactive) | > 100 µM (inactive) | > 100 µM (inactive) | > 100 µM (inactive) | > 100 µM (inactive) | > 100 µM (inactive) | – | > 100 µM (inactive) | > 100 µM (inactive) | – | > 100 µM (inactive)
COc1ccc(CCNC(=O)c2ccccc2C2c3ccc(OCc4ccccc4)cc3Oc3cc(OCc4ccccc4)ccc32)cc1OC | > 100 µM (inactive) | > 100 µM (inactive) | > 100 µM (inactive) | > 100 µM (inactive) | > 100 µM (inactive) | > 100 µM (inactive) | > 100 µM (inactive) | 94.6 µM (inactive) | > 100 µM (inactive) | > 100 µM (inactive) | > 100 µM (inactive) | > 100 µM (inactive) | > 100 µM (inactive) | > 100 µM (inactive) | – | > 100 µM (inactive) | > 100 µM (inactive) | > 100 µM (inactive) | > 100 µM (inactive) | > 100 µM (inactive)
Cc1ccc(NC(=O)c2cc(S(=O)(=O)Nc3n[nH]c(=O)[nH]3)c(SSc3cc(Cl)c(C(=O)Nc4ccc(C)cc4)cc3S(=O)(=O)Nc3n[nH]c(=O)[nH]3)cc2Cl)cc1 | > 100 µM (inactive) | > 100 µM (inactive) | > 100 µM (inactive) | > 100 µM (inactive) | > 100 µM (inactive) | > 100 µM (inactive) | > 100 µM (inactive) | > 100 µM (inactive) | > 100 µM (inactive) | – | > 100 µM (inactive) | > 100 µM (inactive) | > 100 µM (inactive) | > 100 µM (inactive) | – | > 100 µM (inactive) | > 100 µM (inactive) | > 100 µM (inactive) | > 100 µM (inactive) | > 100 µM (inactive)
COc1ccc(C2C(=O)c3c(OC)cc(OC)cc3OC2c2cccnc2)cc1 (centres undefined) | > 100 µM (inactive) | 71.3 µM (inactive) | 46 µM (inactive) | 53.5 µM (inactive) | > 100 µM (inactive) | 59.6 µM (inactive) | > 100 µM (inactive) | > 100 µM (inactive) | 46.7 µM (inactive) | > 100 µM (inactive) | > 100 µM (inactive) | 61.2 µM (inactive) | > 100 µM (inactive) | > 100 µM (inactive) | > 100 µM (inactive) | > 100 µM (inactive) | > 100 µM (inactive) | > 100 µM (inactive) | – | 32.2 µM (inactive)
CN(C)CC1CCC(CN(C)C)C1=O (centres undefined) | 23 µM (inactive) | 6.64 µM (inactive) | 0.594 µM (active) | 18.3 µM (inactive) | 0.736 µM (active) | 0.418 µM (active) | 4.53 µM (inactive) | 8.34 µM (inactive) | 2.01 µM (inactive) | – | 0.458 µM (active) | 4.54 µM (inactive) | 4.05 µM (inactive) | 3.81 µM (inactive) | 18.4 µM (inactive) | 14.7 µM (inactive) | 8.26 µM (inactive) | 14.1 µM (inactive) | 0.541 µM (active) | 7.67 µM (inactive)
CC(=O)Oc1ccc(OC(Oc2ccccc2)c2ccccc2)cc1 (centres undefined) | 50.9 µM (inactive) | 28.1 µM (inactive) | 34 µM (inactive) | 29.6 µM (inactive) | 20 µM (inactive) | 51.4 µM (inactive) | 41.6 µM (inactive) | 32.2 µM (inactive) | 21.3 µM (inactive) | 36.9 µM (inactive) | 35.4 µM (inactive) | 21.6 µM (inactive) | 17.7 µM (inactive) | 21.2 µM (inactive) | 23.1 µM (inactive) | 67.3 µM (inactive) | – | – | – | 26.8 µM (inactive)
COC(=O)c1c(O)ccc2c1c1cc3ccccc3c(O)c1n2CCc1ccc(OC)c(OC)c1 | 51.6 µM (inactive) | 1.79 µM (inactive) | 89.3 µM (inactive) | 96.8 µM (inactive) | 68.7 µM (inactive) | 87.1 µM (inactive) | > 100 µM (inactive) | > 100 µM (inactive) | 57.7 µM (inactive) | 96.6 µM (inactive) | 65.8 µM (inactive) | – | 93.1 µM (inactive) | 68.2 µM (inactive) | 98.9 µM (inactive) | > 100 µM (inactive) | 26.2 µM (inactive) | 58.2 µM (inactive) | 18.9 µM (inactive) | 84.1 µM (inactive)
CC(C)CN(CC#N)CC(C)C | > 100 µM (inactive) | > 100 µM (inactive) | > 100 µM (inactive) | > 100 µM (inactive) | > 100 µM (inactive) | > 100 µM (inactive) | > 100 µM (inactive) | > 100 µM (inactive) | > 100 µM (inactive) | > 100 µM (inactive) | > 100 µM (inactive) | > 100 µM (inactive) | > 100 µM (inactive) | > 100 µM (inactive) | – | > 100 µM (inactive) | > 100 µM (inactive) | – | 48.9 µM (inactive) | > 100 µM (inactive)
NCCCNOCCCN | > 100 µM (inactive) | > 100 µM (inactive) | > 100 µM (inactive) | > 100 µM (inactive) | > 100 µM (inactive) | > 100 µM (inactive) | – | – | > 100 µM (inactive) | > 100 µM (inactive) | > 100 µM (inactive) | – | > 100 µM (inactive) | > 100 µM (inactive) | > 100 µM (inactive) | > 100 µM (inactive) | > 100 µM (inactive) | > 100 µM (inactive) | > 100 µM (inactive) | > 100 µM (inactive)
Brc1ccc(C2=NCSC(c3ccc(Br)cc3)=N2)cc1 | 30.5 µM (inactive) | 27.4 µM (inactive) | 16.1 µM (inactive) | 26.9 µM (inactive) | 7.98 µM (inactive) | 31 µM (inactive) | 11.6 µM (inactive) | 19.1 µM (inactive) | 20.1 µM (inactive) | – | 32.2 µM (inactive) | 25.4 µM (inactive) | 32 µM (inactive) | – | 31.5 µM (inactive) | 17.6 µM (inactive) | 25.2 µM (inactive) | 16.6 µM (inactive) | 16.1 µM (inactive) | 15.4 µM (inactive)
